# PMC8358460, “Structural basis for the binding of the cancer targeting scorpion toxin, ClTx, to the vascular endothelia growth factor receptor neuropilin-1” (Current Research in Structural Biology, 2021)
# Entries after “also recorded” stand apart in the source; their conditions may differ.
# Assays:
# [1] = molecular target: T1, human NRP1-b1 domain (Homo sapiens, UniProt O14786); assay: ITC measurement of binding to NRP1-b1 domain; settings: pH 5.5, 32 °C
# [2] = molecular target: T1, human NRP1-b1 domain; assay: ITC competition: ClTx injected into NRP1-b1 in presence of EG00229; format: binding; settings: 800 μM ClTx into 40 μM NRP1-b1 + 200 μM EG00229; 50 mM sodium citrate pH 5.5, 150 mM NaCl, 32 °C
# [3] = molecular target: T1, human NRP1-b1 domain; assay: NMR competition titration of 15N-ClTx/NRP1-b1 with EG00229; format: binding; settings: 413 μM EG00229 added to 55 μM 15N-ClTx + 125 μM NRP1-b1; 50 mM sodium citrate pH 5.5, 150 mM NaCl, 5% D2O, 298 K
# T1 sequence (O14786 273-427): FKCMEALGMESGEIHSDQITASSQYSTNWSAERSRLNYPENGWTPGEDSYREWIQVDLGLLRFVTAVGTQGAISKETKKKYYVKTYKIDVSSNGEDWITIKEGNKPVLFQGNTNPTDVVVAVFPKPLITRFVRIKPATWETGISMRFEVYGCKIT
structure (smiles),measurement,setting,value
NC(N)=NCCC[C@H](NC(=O)c1sccc1NS(=O)(=O)c1cccc2nsnc12)C(=O)O [EG00229],"binding strength, in words",[1],strong binding
same,inhibition of the ClTx–NRP1-b1 interaction by EG00229,[2],fully inhibited; also recorded: completely blocks chlorotoxin from binding
same,recovery of backbone signal of 15N ClTx on addition of EG00229,[3],completely recovered
